PMC2935290 (Journal of immunology (Baltimore, Md. : 1950), 2010)
Numbering of substitutions follows the chain as printed. Where no end group is shown, it is not given here.

Tests used:
HLA-DPB1*0402 = molecular target: T1, HLA-DPB1*0402 (Homo sapiens, UniProt P04440+P20036, A65V/A84D/A85E/L207M); assay: biochemical; assay type: binding
T1 sequence (P04440 30-258 A65V/A84D/A85E): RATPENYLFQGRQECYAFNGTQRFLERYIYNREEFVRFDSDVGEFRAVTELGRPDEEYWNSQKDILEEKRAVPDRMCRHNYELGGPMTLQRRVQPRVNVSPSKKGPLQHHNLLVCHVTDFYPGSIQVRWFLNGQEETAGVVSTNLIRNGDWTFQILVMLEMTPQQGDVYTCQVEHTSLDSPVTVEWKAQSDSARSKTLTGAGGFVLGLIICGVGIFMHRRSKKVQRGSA
T1 sequence (P20036 29-260): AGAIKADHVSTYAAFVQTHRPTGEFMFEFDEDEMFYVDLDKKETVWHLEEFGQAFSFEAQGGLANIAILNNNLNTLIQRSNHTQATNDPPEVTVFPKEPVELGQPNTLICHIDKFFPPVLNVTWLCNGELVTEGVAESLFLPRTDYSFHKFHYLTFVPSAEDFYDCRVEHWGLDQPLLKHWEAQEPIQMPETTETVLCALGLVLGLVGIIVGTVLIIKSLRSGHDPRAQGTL

HLA-DPB1*0201 = molecular target: T2, HLA-DPB1*0201 (Homo sapiens, UniProt P04440+P20036, A65V/A84D/A85E/K98E); assay: biochemical; assay type: binding
T2 sequence (P04440 30-258 A65V/A84D/A85E/K98E): T1 sequence (P04440 30-258 A65V/A84D/A85E) with K69E
T2 sequence (P20036 29-260): T1 sequence (P20036 29-260)

Molecule | IC50 (HLA-DPB1*0402) [nM] | IC50 (HLA-DPB1*0201) [nM]
FDRSTKVIDFHYPNE | 30400 | 
NNKYAASSYLSLTPE | 42 | 2.4
CC(C)C[C@H](NC(=O)[C@@H](NC(=O)[C@H](Cc1c[nH]cn1)NC(=O)[C@H](CO)NC(=O)[C@H](Cc1ccccc1)NC(=O)[C@H](CO)NC(=O)CNC(=O)CNC(=O)[C@H](CC(C)C)NC(=O)[C@H](Cc1ccc(O)cc1)NC(=O)[C@H](CCCNC(=N)N)NC(=O)[C@H](Cc1ccc(O)cc1)NC(=O)[C@H](CC(C)C)NC(=O)[C@@H]1CCCN1)C(C)C)C(=O)O | 149 | 13
EEVDMTPADALDDFD | 26000 | 5800
CC[C@H](C)[C@H](NC(=O)[C@H](C)NC(=O)[C@H](CS)NC(=O)[C@H](C)NC(=O)[C@H](CC(C)C)NC(=O)[C@@H](NC(=O)CNC(=O)[C@H](CC(=O)O)NC(=O)[C@H](CC(=O)O)NC(=O)CNC(=O)[C@@H](N)CCSC)C(C)C)C(=O)N[C@@H](C)C(=O)N[C@H](C(=O)N[C@@H](Cc1c[nH]cn1)C(=O)N[C@@H](C)C(=O)N[C@@H](CCCCN)C(=O)N[C@H](C(=O)N[C@@H](CCCNC(=N)N)C(=O)N[C@@H](CC(=O)O)C(=O)O)[C@@H](C)CC)[C@@H](C)O |  | 8790
TPTEKDEYCARVNH | 14000 | 
CDGERPTLAFLQDVM | 15200 | 32800
CC[C@H](C)[C@H](NC(=O)[C@H](CO)NC(=O)[C@H](CCC(=O)O)NC(=O)[C@H](C)NC(=O)[C@H](CCC(=O)O)NC(=O)[C@H](CCSC)NC(=O)[C@H](CCC(N)=O)NC(=O)[C@H](CCCCN)NC(=O)[C@@H](NC(=O)[C@H](CC(=O)O)NC(=O)[C@H](CCC(=O)O)NC(=O)[C@H](CCSC)NC(=O)[C@H](C)NC(=O)[C@H](CCC(N)=O)NC(=O)[C@H](CC(=O)O)NC(=O)[C@H](CCC(=O)O)NC(=O)[C@@H](N)[C@@H](C)O)[C@@H](C)CC)C(=O)N[C@@H](CO)C(=O)O | 2470 | 4770
CC(C)C[C@H](NC(=O)[C@@H](NC(=O)[C@H](CC(N)=O)NC(=O)[C@H](Cc1ccccc1)NC(=O)[C@H](CC(C)C)NC(=O)[C@H](CO)NC(=O)[C@H](Cc1c[nH]c2ccccc12)NC(=O)[C@@H](NC(=O)[C@@H](NC(=O)[C@H](Cc1c[nH]cn1)NC(=O)[C@H](CC(=O)O)NC(=O)[C@@H]1CCCN1C(=O)[C@@H](N)C(C)C)C(C)C)C(C)C)[C@@H](C)O)C(=O)O | 8.4 | 1.1
CSCC[C@H](NC(=O)[C@H](CCCNC(=N)N)NC(=O)[C@H](CCSC)NC(=O)[C@H](CCCCN)NC(=O)[C@H](CO)NC(=O)[C@@H](NC(=O)[C@@H]1CCCN1C(=O)[C@@H](N)CCCCN)C(C)C)C(=O)N[C@@H](C)C(=O)N[C@H](C(=O)N1CCC[C@H]1C(=O)N[C@@H](CC(C)C)C(=O)N[C@@H](CC(C)C)C(=O)N[C@@H](CCSC)C(=O)N[C@@H](CCC(N)=O)C(=O)N[C@@H](C)C(=O)N[C@@H](CC(C)C)C(=O)N1CCC[C@H]1C(=O)O)[C@@H](C)O | 138 | 161
RSQPGLCNMYKDSHHPARTA | 7780 | 4590
CC[C@H](C)[C@H](NC(=O)[C@@H](N)CCCCN)C(=O)N[C@@H](Cc1ccccc1)C(=O)NCC(=O)N[C@@H](CO)C(=O)N[C@@H](CC(C)C)C(=O)N[C@@H](C)C(=O)N[C@@H](Cc1ccccc1)C(=O)N[C@@H](CC(C)C)C(=O)N1CCC[C@H]1C(=O)N[C@@H](CCC(=O)O)C(=O)N[C@@H](CO)C(=O)N[C@@H](Cc1ccccc1)C(=O)N[C@@H](CC(=O)O)C(=O)NCC(=O)N[C@@H](CC(=O)O)C(=O)N1CCC[C@H]1C(=O)N[C@@H](C)C(=O)O | 143 | 9
DVKFPGGGQIVGGVYLLPRR | 33 | 
CC(C)C[C@H](NC(=O)[C@H](CO)NC(=O)[C@H](CCC(N)=O)NC(=O)[C@@H](N)CC(C)C)C(=O)N[C@H](C(=O)N[C@@H](CO)C(=O)N[C@@H](CCC(N)=O)C(=O)N[C@@H](Cc1ccc(O)cc1)C(=O)N[C@@H](Cc1ccccc1)C(=O)N[C@@H](CCC(N)=O)C(=O)N[C@H](C(=O)N[C@H](C(=O)N[C@@H](C)C(=O)N[C@@H](CC(=O)O)C(=O)N[C@@H](Cc1ccc(O)cc1)C(=O)O)C(C)C)[C@@H](C)O)C(C)C |  | 2.7
CC[C@H](C)[C@H](NC(=O)[C@H](CC(=O)O)NC(=O)[C@H](CC(=O)O)NC(=O)[C@H](Cc1ccccc1)NC(=O)[C@H](C)NC(=O)[C@H](CCCCN)NC(=O)[C@H](CCC(N)=O)NC(=O)[C@@H](NC(=O)[C@H](CCCCN)NC(=O)[C@@H](N)CCC(=O)O)[C@@H](C)CC)C(=O)N[C@@H](C)C(=O)N[C@@H](CCCCN)C(=O)N[C@@H](Cc1ccc(O)cc1)C(=O)N[C@@H](Cc1ccccc1)C(=O)N[C@@H](CO)C(=O)N[C@@H](CCCCN)C(=O)O | 506 | 75
RELWWVFYAAD |  | 291
CSCC[C@H](NC(=O)[C@H](CCSC)NC(=O)[C@@H](N)CCCNC(=N)N)C(=O)N[C@@H](CCC(=O)O)C(=O)N[C@@H](Cc1ccc(O)cc1)C(=O)NCC(=O)N[C@H](C(=O)N[C@H](C(=O)N[C@@H](CCSC)C(=O)N[C@H](C(=O)N[C@@H](CO)C(=O)N[C@@H](Cc1ccc(O)cc1)C(=O)N[C@@H](CCC(N)=O)C(=O)N1CCC[C@H]1C(=O)N[C@@H](CC(C)C)C(=O)O)C(C)C)[C@@H](C)O)[C@@H](C)O | 1310 | 725
INEPTAAAIAYGLDR | 11600 | 4150
DTLRSYYADWYQQKPG | 1550 | 188
LTGYSLFQKEKMVLN |  | 180
CC[C@H](C)[C@H](NC(=O)[C@H](CS)NC(=O)[C@@H]1CCCN1C(=O)[C@H](CCC(=O)O)NC(=O)[C@H](CO)NC(=O)CNC(=O)[C@@H](N)Cc1c[nH]cn1)C(=O)N[C@H](C(=O)N[C@@H](Cc1c[nH]cn1)C(=O)N[C@@H](CCCNC(=N)N)C(=O)NCC(=O)N[C@@H](CCCCN)C(=O)N1CCC[C@H]1C(=O)N[C@@H](Cc1ccccc1)C(=O)N[C@@H](CCC(N)=O)C(=O)N[C@@H](CC(C)C)C(=O)N[C@@H](CCC(=O)O)C(=O)N[C@@H](C)C(=O)N[C@H](C(=O)O)C(C)C)[C@@H](C)CC | 1410 | 820
CC[C@H](C)[C@H](NC(=O)[C@H](C)NC(=O)[C@H](CC(=O)O)NC(=O)[C@H](CCCCN)NC(=O)[C@H](CC(C)C)NC(=O)[C@@H](NC(=O)[C@H](CCC(=O)O)NC(=O)[C@H](C)NC(=O)[C@H](Cc1ccccc1)NC(=O)[C@@H](NC(=O)[C@H](Cc1c[nH]cn1)NC(=O)[C@@H](NC(=O)[C@H](CCC(N)=O)NC(=O)[C@H](CC(C)C)NC(=O)[C@H](Cc1ccccc1)NC(=O)[C@@H](N)C(C)C)[C@@H](C)O)[C@@H](C)CC)C(C)C)C(=O)N[C@@H](CCCCN)C(=O)N[C@@H](CC(=O)O)C(=O)N[C@@H](CC(C)C)C(=O)O | 5.6 | 32
SDVGEFRAVTELG | 4050 | 619
CC[C@H](C)[C@H](NC(=O)[C@@H](N)Cc1c[nH]c2ccccc12)C(=O)N[C@H](C(=O)N[C@@H](CCC(N)=O)C(=O)N[C@@H](CS)C(=O)N[C@@H](Cc1ccccc1)C(=O)N[C@@H](CC(C)C)C(=O)N1CCC[C@H]1C(=O)N[C@H](C(=O)N[C@@H](Cc1ccccc1)C(=O)N[C@@H](CC(C)C)C(=O)N[C@@H](C)C(=O)N[C@@H](CCC(N)=O)C(=O)N1CCC[C@H]1C(=O)N1CCC[C@H]1C(=O)N[C@@H](CO)C(=O)NCC(=O)N[C@@H](CCC(N)=O)C(=O)N[C@@H](CCCNC(=N)N)C(=O)N[C@@H](CCCNC(=N)N)C(=O)O)C(C)C)[C@@H](C)O | 25 | 
